# What was measured:
# Streptococcus group G = test: MIC by standard blood agar dilution technique; conditions: inoculate size 10^3
# Source text: (§1) The following bacteria were investigated: methicillin-resistant Staphylococcus aureus (MSRA), fucidic acid-resistant S. aureus, non-resistant S. pyogenes, coagulation-negative staphylococci (for resistance, see Table 1 below) vancomycin-resistant enterococci (Enterococcus CCUG van A and van B), non-resistant Escherichia coli, Acinetobacter resistant against cefadroxil, nitrofurantin, mecillinam, Serratia maltophilia resistant against most types of antibiotics, Enterobacter (for resistance, see Table 1 below; additionally resistant against cefadroxil and nitrofurantin), non-resistant α-streptococci, non-resistant Streptococcus Group G, Pseudomonas aeruginosa (for resistance, see Table 2 below). Inocula of 10^3 and 10^5 bacteria were used.
# Pseudomonas aeruginosa = test: MIC by standard blood agar dilution technique
# Source text: as §1
# male rabbits = conditions: four male rabbits, skin sealed 24 hrs, highest tested dose 20 ml/kg, observed over a fortnight
# Method: Topical administration. The penetration of rabbit skin was tested with a cuff model. The hair on the back of four male rabbits weighing from 2.5 to 3.5 kg was removed by shaving, the diol applied to the skin with a pipette, and the skin sealed with polyethylene film for 24 hrs. During the test period the animals were immobilised. After the exposure the animals were observed over a fortnight period.
# Escherichia coli = test: MIC by standard blood agar dilution technique
# Source text: as §1
# Enterobacter = test: MIC by standard blood agar dilution technique; conditions: MR tri −
# Source text: as §1
# [1] = test system: methicillin-resistant Staphylococcus aureus; test: MIC by standard blood agar dilution technique; conditions: MR fuc +, met +
# Source text: as §1
# S. maltophilia = test: MIC by standard blood agar dilution technique; conditions: inoculate size 10^3
# Source text: as §1
smiles,measurement,setting,value
"OCCCCCO [pentane-1,5-diol]","MIC (% by weight of pentane-1,5-diol)",Streptococcus group G; Streptococcus group G 900 × 1714,10.0 % by weight
same,"MIC (% by weight of pentane-1,5-diol)",Streptococcus group G; Streptococcus group G 915 × 1095,7.5 % by weight
same,"MIC (% by weight of pentane-1,5-diol)",Streptococcus group G; Streptococcus group G 915 × 1146,7.5 % by weight
same,"MIC (% by weight of pentane-1,5-diol)",Streptococcus group G; Streptococcus group G 916 × 10985,7.5 % by weight
same,"MIC (% by weight of pentane-1,5-diol)","Pseudomonas aeruginosa; P. aeruginosa 921 × 17701, inoculate size 10^3, MR cip +, tri +",5.0 % by weight
same,"MIC (% by weight of pentane-1,5-diol)","Pseudomonas aeruginosa; P. aeruginosa 921 × 17748, inoculate size 10^3, MR cip −, tri +",5.0 % by weight
same,"MIC (% by weight of pentane-1,5-diol)","Pseudomonas aeruginosa; P. aeruginosa 921 × 17756, inoculate size 10^3, MR cip +, tri +",5.0 % by weight
same,"MIC (% by weight of pentane-1,5-diol)","Pseudomonas aeruginosa; P. aeruginosa 921 × 57855, inoculate size 10^5, MR van +, tri −",10.0 % by weight
same,"MIC (% by weight of pentane-1,5-diol)","Pseudomonas aeruginosa; P. aeruginosa CCUG 17619, inoculate size 10^3",5.0 % by weight
same,"MIC (% by weight of pentane-1,5-diol)","Pseudomonas aeruginosa; P. aeruginosa CCUG 17619, inoculate size 10^5",5.0 % by weight
same,survival after topical administration,male rabbits,the animals survived
same,"MIC (% by weight of pentane-1,5-diol)","Escherichia coli; E. coli 921 × 57387, inoculate size 10^3, MR tri +",5.0 % by weight
same,"MIC (% by weight of pentane-1,5-diol)","Escherichia coli; E. coli 921 × 57387, inoculate size 10^5, MR tri +",10.0 % by weight
same,"MIC (% by weight of pentane-1,5-diol)","Escherichia coli; E. coli 921 × 57388, inoculate size 10^3",5.0 % by weight
same,"MIC (% by weight of pentane-1,5-diol)","Escherichia coli; E. coli 921 × 57388, inoculate size 10^5",10.0 % by weight
same,"MIC (% by weight of pentane-1,5-diol)","Escherichia coli; E. coli 921 × 57389, inoculate size 10^3",5.0 % by weight
same,"MIC (% by weight of pentane-1,5-diol)","Escherichia coli; E. coli 921 × 57389, inoculate size 10^5",10.0 % by weight
same,"MIC (% by weight of pentane-1,5-diol)","Escherichia coli; E. coli 921 × 57397, inoculate size 10^3",5.0 % by weight
same,"MIC (% by weight of pentane-1,5-diol)","Escherichia coli; E. coli 921 × 57397, inoculate size 10^5",10.0 % by weight
same,"MIC (% by weight of pentane-1,5-diol)","Escherichia coli; E. coli 921 × 57418, inoculate size 10^3",5.0 % by weight
same,"MIC (% by weight of pentane-1,5-diol)","Escherichia coli; E. coli 921 × 57418, inoculate size 10^5",10.0 % by weight
same,"MIC (% by weight of pentane-1,5-diol)","Enterobacter; Enterobacter 921 × 57097, inoculate size 10^3",5.0 % by weight
same,"MIC (% by weight of pentane-1,5-diol)","Enterobacter; Enterobacter 921 × 57097, inoculate size 10^5",10.0 % by weight
same,"MIC (% by weight of pentane-1,5-diol)","Enterobacter; Enterobacter 921 × 57100, inoculate size 10^3",5.0 % by weight
same,"MIC (% by weight of pentane-1,5-diol)","Enterobacter; Enterobacter 921 × 57100, inoculate size 10^5",10.0 % by weight
same,"MIC (% by weight of pentane-1,5-diol)","Enterobacter; Enterobacter 921 × 57119, inoculate size 10^3",5.0 % by weight
same,"MIC (% by weight of pentane-1,5-diol)","Enterobacter; Enterobacter 921 × 57119, inoculate size 10^5",10.0 % by weight
same,"MIC (% by weight of pentane-1,5-diol)","Enterobacter; Enterobacter 921 × 57416, inoculate size 10^3",5.0 % by weight
same,"MIC (% by weight of pentane-1,5-diol)","Enterobacter; Enterobacter 921 × 57416, inoculate size 10^5",10.0 % by weight
same,"MIC (% by weight of pentane-1,5-diol)","Enterobacter; Enterobacter 921 × 57514, inoculate size 10^3",5.0 % by weight
same,"MIC (% by weight of pentane-1,5-diol)","Enterobacter; Enterobacter 921 × 57514, inoculate size 10^5",10.0 % by weight
same,"MIC (% by weight of pentane-1,5-diol)","Enterobacter; Enterobacter 921 × 57574, inoculate size 10^3",5.0 % by weight
same,"MIC (% by weight of pentane-1,5-diol)","Enterobacter; Enterobacter 921 × 57574, inoculate size 10^5",10.0 % by weight
same,"MIC (% by weight of pentane-1,5-diol)","[1]; MRSA CCUG 41787, inoculate size 10^3",12.5 % by weight
same,"MIC (% by weight of pentane-1,5-diol)","[1]; MRSA CCUG 41787, inoculate size 10^5",17.5 % by weight
same,"MIC (% by weight of pentane-1,5-diol)","[1]; MRSA CCUG 45007, inoculate size 10^3",10.0 % by weight
same,"MIC (% by weight of pentane-1,5-diol)","[1]; MRSA CCUG 45007, inoculate size 10^5",12.5 % by weight
same,"MIC (% by weight of pentane-1,5-diol)","[1]; MRSA CCUG 45008, inoculate size 10^3",12.5 % by weight
same,"MIC (% by weight of pentane-1,5-diol)","[1]; MRSA CCUG 45008, inoculate size 10^5",15.0 % by weight
same,"MIC (% by weight of pentane-1,5-diol)","[1]; MRSA CCUG 46463, inoculate size 10^3",10.0 % by weight
same,"MIC (% by weight of pentane-1,5-diol)","[1]; MRSA CCUG 46463, inoculate size 10^5",15.0 % by weight
same,"MIC (% by weight of pentane-1,5-diol)","[1]; MRSA CCUG 46618, inoculate size 10^3",12.5 % by weight
same,"MIC (% by weight of pentane-1,5-diol)","[1]; MRSA CCUG 46618, inoculate size 10^5",15.0 % by weight
same,"MIC (% by weight of pentane-1,5-diol)","[1]; MRSA CCUG 46740, inoculate size 10^3",12.5 % by weight
same,"MIC (% by weight of pentane-1,5-diol)","[1]; MRSA CCUG 46740, inoculate size 10^5",17.5 % by weight
same,"MIC (% by weight of pentane-1,5-diol)","[1]; MRSA CCUG 46870, inoculate size 10^3",10.0 % by weight
same,"MIC (% by weight of pentane-1,5-diol)","[1]; MRSA CCUG 46870, inoculate size 10^5",17.5 % by weight
same,"MIC (% by weight of pentane-1,5-diol)","[1]; MRSA CCUG 47019, inoculate size 10^3",10.0 % by weight
same,"MIC (% by weight of pentane-1,5-diol)","[1]; MRSA CCUG 47019, inoculate size 10^5",17.5 % by weight
same,"MIC (% by weight of pentane-1,5-diol)","[1]; MRSA Cypem, inoculate size 10^3",7.5 % by weight
same,"MIC (% by weight of pentane-1,5-diol)","[1]; MRSA Cypem, inoculate size 10^5",10.0 % by weight
same,"MIC (% by weight of pentane-1,5-diol)","[1]; MRSA PB/SS, inoculate size 10^3",12.5 % by weight
same,"MIC (% by weight of pentane-1,5-diol)","[1]; MRSA PB/SS, inoculate size 10^5",15.0 % by weight
same,"MIC (% by weight of pentane-1,5-diol)",S. maltophilia; S. maltophilia 515 × 695,5.0 % by weight
same,"MIC (% by weight of pentane-1,5-diol)",S. maltophilia; S. maltophilia 515 × 1269,2.5 % by weight
same,"MIC (% by weight of pentane-1,5-diol)",S. maltophilia; S. maltophilia 516 × 679,5.0 % by weight
same,"MIC (% by weight of pentane-1,5-diol)",S. maltophilia; S. maltophilia 900 × 1230,5.0 % by weight
same,"MIC (% by weight of pentane-1,5-diol)",S. maltophilia; S. maltophilia 921 × 16157,5.0 % by weight

# From patent US7973080B2 (Ambria Dermatology AB, priority 2003, dated 2011)
